Test: xn = mol fraction of the nth substance listed
Conditions: 101 kPa, Liquid; for speed of sound: Sing-around technique in a fixed-path interferometer; for mass density: Vibrating tube method

CCCCCC[n+]1ccc(C)cc1.[Br-] [1-hexyl-4-methylpyridinium bromide] + O
Conditions | mass density, 308.15 K [kg/m3] | mass density, 318.15 K [kg/m3] | speed of sound, 308.15 K [m/s] | speed of sound, 318.15 K [m/s]
x2 = 0.0528 | 1214.12 | 1207.39 | 1586.8 | 1557.9
x2 = 0.1126 | 1213.44 | 1206.62 | 1583.6 | 1557
x2 = 0.2082 | 1211.69 | 1204.8 | 1579.1 | 1555.2
x2 = 0.2609 | 1210.34 | 1203.43 | 1575.7 | 1554.2
x2 = 0.3062 | 1208.9 | 1202.01 | 1573.2 | 1553.2
x2 = 0.4101 | 1204.56 | 1197.72 | 1568.4 | 1551.7
x2 = 0.4609 | 1201.71 | 1194.91 | 1565.3 | 1550.7
x2 = 0.5077 | 1198.65 | 1191.88 | 1563 | 1549.8
x2 = 0.6089 | 1189.79 | 1183.07 | 1557.2 | 1547.7
x2 = 0.6539 | 1184.57 | 1177.87 | 1553.3 | 1546
x2 = 0.7029 | 1177.58 | 1170.89 | 1547.7 | 1544.7
x2 = 0.7484 | 1169.44 | 1162.78 | 1542.9 | 1543.5
x2 = 0.8066 | 1155.56 | 1148.97 | 1537.6 | 1542
x2 = 0.8545 | 1139.33 | 1132.88 | 1533.7 | 1540.5
x2 = 0.9066 | 1112.82 | 1106.74 | 1529.4 | 1539.1
x2 = 0.9502 | 1076.22 | 1070.75 | 1524.9 | 1537.8

CCCCCC[n+]1ccccc1.[Br-] [1-hexylpyridinium bromide] + O
Conditions | mass density, 308.15 K [kg/m3] | mass density, 318.15 K [kg/m3] | speed of sound, 308.15 K [m/s] | speed of sound, 318.15 K [m/s]
x2 = 0.0609 | 1235 | 1228.39 | 1589.8 | 1556.2
x2 = 0.1184 | 1234.11 | 1227.43 | 1587.3 | 1555.1
x2 = 0.2091 | 1232.19 | 1225.43 | 1583.4 | 1553.2
x2 = 0.2544 | 1230.93 | 1224.15 | 1580.7 | 1552.2
x2 = 0.3097 | 1229.05 | 1222.25 | 1578.7 | 1551.4
x2 = 0.414 | 1224.2 | 1217.39 | 1574.6 | 1550
x2 = 0.4533 | 1221.81 | 1215.01 | 1572.9 | 1549.3
x2 = 0.5028 | 1218.26 | 1211.46 | 1571.8 | 1548.7
x2 = 0.5928 | 1209.73 | 1202.97 | 1570.1 | 1547.5
x2 = 0.6486 | 1202.64 | 1195.91 | 1565.9 | 1547.1
x2 = 0.7138 | 1191.79 | 1185.1 | 1561.6 | 1546.5
x2 = 0.7554 | 1182.79 | 1176.19 | 1557.1 | 1545.7
x2 = 0.7995 | 1170.69 | 1164.19 | 1551.1 | 1545
x2 = 0.8534 | 1150.45 | 1144.16 | 1543.3 | 1543.3
x2 = 0.9011 | 1124.03 | 1118.08 | 1535.9 | 1541.3
x2 = 0.9511 | 1079.2 | 1073.95 | 1528.1 | 1539.1
